Tests used:
[1] = system: peptide-pulsed C1R-A03; assay: In vitro CTL induction, IFN-gamma ELISPOT assay (HLA-A*0301); assay type: cell-based, human; settings: CTLs induced with peptide-pulsed DCs from HLA-A*0301-positive volunteers; day 21; vs peptide-pulsed C1R-A03, compared with unpulsed control
Protocol: (§1) C1R (C1R-A03) that stably expresses HLA-A*0301 was used as a stimulator cell. A cDNA encoding the open-reading frame of HLA-A*0301 was amplified by PCR and cloned into an expression vector. C1R cells were transfected with the expression vector, and then selected using G418 (Invitrogen) for two weeks. The G418-selected cells were seeded into wells containing G418-added culture medium in a 96-well plate, and further cultured for 30 days. The exogenous HLA-A*0301 expression in C1R cells was verified by flow cytometric analysis.
Monocyte-derived dendritic cells (DCs) were used as the antigen-presenting cell to induce a cytotoxic T lymphocyte (CTL) response against peptides presented on human leukocyte antigens (HLAs). As described in the other sections, DCs were generated in vitro (Nakahara S et al., Cancer Res 2003, 63(14): 4112-8). Specifically, peripheral-blood mononuclear cells isolated from healthy volunteers (HLA-A*0301-positive) with the Ficoll-Paque plus solution (Pharmacia) were separated by attaching to plastic tissue culture dishes (Becton Dickinson) and concentrated as a monocyte fraction. The monocyte-concentrated population was cultured in the presence of 1000 IU/ml granulocyte macrophage colony-stimulating factor (R&D System) and 1000 IU/ml interleukin(IL)-4 (R&D System) in an AIM-V medium (Invitrogen) containing 2% heat-inactivated autologous serum (AS). After seven days of culturing, the cytokine-induced DCs were pulsed with 20 micro-g/ml each of the synthesized peptides in an AIM-V medium at 37 degrees C. for three hours in the presence of 3 micro-g/ml beta 2-microglobulin. The generated cells appeared to express on their cell surface DC-associated molecules such as CD80, CD83, CD86 and HLA class II (data not shown). Next, these peptide-pulsed DCs were inactivated by X-ray irradiation (20 Gy), and mixed in a 1:20 ratio with autologous CD8^+ T cells obtained by positive selection using the CD8 Positive Isolation Kit (Dynal). These culture products were seeded in a 48-well plate (Corning). Each well was made to contain 1.5×10^4 peptide-pulsed DCs, 3×10^5 CD8^+ T cells and 10 ng/ml IL-7 (R&D System) in 0.5 ml of the AIM-V/2% AS medium. Three days later, these culture products were added with a final concentration of 20 IU/ml IL-2 (CHIRON). On day 7 and day 14, T cells were further stimulated with peptide-pulsed autologous DCs. The DCs were prepared every time by the same method as above. […]

[2] = system: peptide-pulsed C1R-A11; assay: In vitro CTL induction, IFN-gamma ELISPOT assay (HLA-A*1101); assay type: cell-based, human; settings: CTLs induced with peptide-pulsed DCs from HLA-A*1101-positive volunteers; day 21; vs peptide-pulsed C1R-A11, compared with unpulsed control
Protocol: as §1, with “(C1R-A11)” for “(C1R-A03)”, “HLA-A*1101” for “HLA-A*0301”
Monocyte-derived dendritic cells (DCs) were used as the antigen-presenting cell to induce a cytotoxic T lymphocyte (CTL) response against peptides presented on human leukocyte antigens (HLAs). As described in the other sections, DCs were generated in vitro (Nakahara S et al., Cancer Res 2003, 63(14): 4112-8). Specifically, peripheral-blood mononuclear cells isolated from healthy volunteers (HLA-A*1101-positive) with the Ficoll-Paque plus solution (Pharmacia) were separated by attaching to plastic tissue culture dishes (Becton Dickinson) and concentrated as a monocyte fraction. The monocyte-concentrated population was cultured in the presence of 1000 IU/ml granulocyte macrophage colony-stimulating factor (R&D System) and 1000 IU/ml interleukin(IL)-4 (R&D System) in an AIM-V medium (Invitrogen) containing 2% heat-inactivated autologous serum (AS). After seven days of culturing, the cytokine-induced DCs were pulsed with 20 micro-g/ml each of the synthesized peptides in an AIM-V medium at 37 degrees C. for three hours in the presence of 3 micro-g/ml beta 2-microglobulin. The generated cells appeared to express on their cell surface DC-associated molecules such as CD80, CD83, CD86 and HLA class II (data not shown). Next, these peptide-pulsed DCs were inactivated, by X-ray irradiation (20 Gy), and mixed in a 1:20 ratio with autologous CD8^+ T cells obtained by positive selection using the CD8 Positive Isolation Kit (Dynal). These culture products were seeded in a 48-well plate (Corning). Each well was made to contain 1.5×10^4 peptide-pulsed DCs, 3×10^5 CD8^+ T cells and 10 ng/ml IL-7 (R&D System) in 0.5 ml of the AIM-V/2% AS medium. Three days later, these culture products were added with a final concentration of 20 IU/ml IL-2 (CHIRON). On day 7 and day 14, T cells were further stimulated with peptide-pulsed autologous DCs. The DCs were prepared every time by the same method as above. On day 21, after the third peptide stimulation, CTLs were examined against the peptide-pulsed C1R-A11 by a human interferon (IFN)-gamma enzyme-linked immunospot (ELISPOT) assay (Tanaka H et al., Br J Cancer 2001, 84(1): 94-9; Umano Y et al., Br J Cancer 2001, 84(8): 1052-7; Uchida N et al., Clin Cancer Res 2004, 10(24): 8577-86; Suda T et al., Cancer Sci 2006, 97(5): 411-9; Watanabe T et al., Cancer Sci 2005, 96(8): 498-506).
Specifically, peptide-pulsed C1R-A11 (1×10^4 cells/well) was prepared as the stimulator cell. The induced CTLs, i.e., CTL lines and CTL clones, were used as the responder cell. The IFN-gamma ELISPOT assay and IFN-gamma ELISA were performed according to the manufacturer's manual.

Sequence | peptide-specific CTL activity (IFN-gamma production), ELISPOT [1] | peptide-specific CTL activity (IFN-gamma production), ELISPOT [2]
ILAHNNFVGR (a peptide derived from KOC1) [SEQ ID NO: 52] | potent IFN-gamma production | 
TQFVGAIIGK (a peptide derived from KOC1) [SEQ ID NO: 30] | potent IFN-gamma production | potent IFN-gamma production

Reference: patent publication US10576102B2, “KOC1-derived peptide and vaccine including same” (ONCOTHERAPY SCIENCE, INC., priority 2014, dated 2020)
